In US20260258032A1, “TYROSINE KINASE 2 INHIBITORS AND USES THEREOF” (BIOGEN MA INC., priority 2022, published 2026):
Where a name gives a salt, the structure may show the parent alone.

Columns and labels:
JH2 domain of human Tyk2 = molecular target: T1, JH2 domain of human Tyk2 (Homo sapiens, UniProt P29597); test: JH2 biochemical assay (TR-FRET probe displacement); assay type: binding
T1 construct: 10×His-tagged TYK2 JH2 domain (amino acid 575-876)
How it was run: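 A probe-displacement TR-FRET readout: compounds, tested in 3-fold, 10-point dilutions starting at […], compete with 2 nM tracer for 2 nM His-tagged JH2 (residues 575-876) detected by 0.1 nM Tb-anti-His over 60 min. IC50 comes from 4-parameter fits of normalized 520/495 nm ratios.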

[1] = test system: Tyk2 kinase activity on STAT4; test: pSTAT4 cell assay (MSD, NK92 cells); assay type: cell-based; conditions: compounds 1 hr
How it was run: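 IC50 values come from 4-parameter logistic fits of normalized percent activity. Phospho-STAT was read by MSD (anti-STAT4 antibodies) in NK92 lysates after a 15 min stimulation with 30 ng/mL IL2. The serum-starved cells had been given compound for 1 h (10 points, four-fold, top 10 μM).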

[2] = TR-FRET probe displacement, JH2 domain of human Tyk2

T1 sequence (P29597 575-876): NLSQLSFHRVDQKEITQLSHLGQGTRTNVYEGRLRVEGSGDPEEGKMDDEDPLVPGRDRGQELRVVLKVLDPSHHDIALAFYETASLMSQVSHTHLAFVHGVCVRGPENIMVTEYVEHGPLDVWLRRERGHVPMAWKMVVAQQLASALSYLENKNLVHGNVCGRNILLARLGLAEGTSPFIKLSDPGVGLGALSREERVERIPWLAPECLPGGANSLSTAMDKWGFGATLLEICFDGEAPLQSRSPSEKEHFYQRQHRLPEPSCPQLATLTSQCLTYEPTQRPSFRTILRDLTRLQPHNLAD

Row | Structure (SMILES) | IC50 (JH2 domain of human Tyk2; JH2 biochemical assay) [nM] | IC50 ([1]; stimulated 15 minutes) [nM] | IC50 (JH2 domain of human Tyk2; [2]) [nM] | IC50 ([1]; then stimulated 15 minutes) [nM]
1 | CC(=O)Nc1cc2c(cn1)C1(CC1)CN2c1cc(CCC(C)(C)O)nc(C(C)(F)F)n1 [Example 327, N-(1′-(2-(1,1-difluoroethyl)-6-(3-hydroxy-3-methylbutyl)pyrimidin-4-yl)-1′,2′-dihydrospiro[cyclopropane-1,3′-pyrrolo[3,2-c]pyridin]-6′-yl)acetamide] | ≤ 10 | 10 to 100 |  | 
2 | CC(=O)Nc1cc2c(cn1)C1(CC1)CN2c1cncc(C(C)(F)F)n1 [Example 101, N-(1′-(6-(1,1-difluoroethyl)pyrazin-2-yl)-1′,2′-dihydrospiro[cyclopropane-1,3′-pyrrolo[3,2-c]pyridin]-6′-yl)acetamide] | ≤ 10 | 100 to 1000 |  | 
3 | CCC(C)(O)CCc1cc(N2CC3(CC3)c3cnc(NC(C)=O)cc32)nc(C(C)(F)F)n1 (stereo not shown) [Example 324, N-(1′-(2-(1,1-difluoroethyl)-6-(3-hydroxy-3-methylpentyl)pyrimidin-4-yl)-1′,2′-dihydrospiro[cyclopropane-1,3′-pyrrolo[3,2-c]pyridin]-6′-yl)acetamide] | ≤ 10 | 10 to 100 |  | 
4 | CC(=O)Nc1cc2c(cn1)C1(CC1)CN2c1nc(C(C)(F)F)nc(C)c1F [Example 127, N-(1′-(2-(1,1-difluoroethyl)-5-fluoro-6-methylpyrimidin-4-yl)-1′,2′-dihydrospiro[cyclopropane-1,3′-pyrrolo[3,2-c]pyridin]-6′-yl)acetamide] | ≤ 10 | 100 to 1000 |  | 
5 | CO[C@@H](C)[C@H](C)Nc1cc(N2CC3(CC3)c3cnc(NC(C)=O)cc32)nc(C(C)(F)F)n1 [Example 165, N-(1′-(2-(1,1-difluoroethyl)-6-(((2S,3S)-3-methoxybutan-2-yl)amino)pyrimidin-4-yl)-1′,2′-dihydrospiro[cyclopropane-1,3′-pyrrolo[3,2-c]pyridin]-6′-yl)acetamide trifluoroacetate] | ≤ 10 | 10 to 100 |  | 
6 | CC(=O)Nc1cc2c(cn1)C1(CC1)CN2c1cc(C)cc(N2CC3CCNC3C2)n1 (stereo not shown) [Example 210, N-(1′-(6-(hexahydropyrrolo[3,4-b]pyrrol-5(1H)-yl)-4-methylpyridin-2-yl)-1′,2′-dihydrospiro[cyclopropane-1,3′-pyrrolo[3,2-c]pyridin]-6′-yl)acetamide trifluoroacetate] | 100 to 1000 | ≥ 1000 |  | 
7 | CC(=O)Nc1cc2c(cn1)C1(CC1)CN2c1cc(C)nc(C23COC(C)(C2)C3)n1 [Example 318, N-(1′-(6-methyl-2-(1-methyl-2-oxabicyclo[2.1.1]hexan-4-yl)pyrimidin-4-yl)-1′,2′-dihydrospiro[cyclopropane-1,3′-pyrrolo[3,2-c]pyridin]-6′-yl)acetamide] | 10 to 100 | ≥ 1000 |  | 
8 | CC(=O)Nc1cc2c(cn1)C1(CC1)CN2c1cc(C)cc(N2CC(O)C(O)C2)n1 (stereo not shown) [Example 187, N-(1′-(6-(3,4-dihydroxypyrrolidin-1-yl)-4-methylpyridin-2-yl)-1′,2′-dihydrospiro[cyclopropane-1,3′-pyrrolo[3,2-c]pyridin]-6′-yl)acetamide] | 100 to 1000 | ≥ 1000 |  | 
9 | CC(=O)Nc1cc2c(cn1)C1(CC1)CN2c1cc(NCCC(C)F)nc(C(C)(F)F)n1 (stereo not shown) [Example 170, N-(1′-(2-(1,1-difluoroethyl)-6-((3-fluorobutyl)amino)pyrimidin-4-yl)-1′,2′-dihydrospiro[cyclopropane-1,3′-pyrrolo[3,2-c]pyridin]-6′-yl)acetamide trifluoroacetate] | ≤ 10 | 10 to 100 |  | 
10 | CC(=O)Nc1cc2c(cn1)C1(CC1)CN2c1nc(C)cc(F)n1 [Example 331, N-(1′-(4-fluoro-6-methylpyrimidin-2-yl)-1′,2′-dihydrospiro[cyclopropane-1,3′-pyrrolo[3,2-c]pyridin]-6′-yl)acetamide trifluoroacetate] | 100 to 1000 | ≥ 1000 |  | 
11 | CC(=O)Nc1cc2c(cn1)C1(CC1)CN2c1ccccn1 [Example 94, N-(1′-(pyridin-2-yl)-1′,2′-dihydrospiro[cyclopropane-1,3′-pyrrolo[3,2-c]pyridin]-6′-yl)acetamide] | 100 to 1000 | ≥ 1000 |  | 
12 | CC(=O)Nc1cc2c(cn1)C1(CC1)CN2c1cc(-c2cnn(CC(F)(F)F)c2)nc(C(C)(F)F)n1 [Example 392, N-(1′-(2-(1,1-difluoroethyl)-6-(1-(2,2,2-trifluoroethyl)-1H-pyrazol-4-yl)pyrimidin-4-yl)-1′,2′-dihydrospiro[cyclopropane-1,3′-pyrrolo[3,2-c]pyridin]-6′-yl)acetamide] |  |  | ≤ 10 | ≤ 10
13 | COCCn1cc(-c2cc(N3CC4(CC4)c4cnc(NC(C)=O)cc43)nc(C(C)(F)F)n2)cn1 [Example 394, N-(1′-(2-(1,1-difluoroethyl)-6-(1-(2-methoxyethyl)-1H-pyrazol-4-yl)pyrimidin-4-yl)-1′,2′-dihydrospiro[cyclopropane-1,3′-pyrrolo[3,2-c]pyridin]-6′-yl)acetamide] |  |  | ≤ 10 | ≤ 10
14 | CC(=O)Nc1cc2c(cn1)C1(CC1)CN2c1cc(C)cc(N2CCN(C)CC2)n1 [Example 207, N-(1′-(4-methyl-6-(4-methylpiperazin-1-yl)pyridin-2-yl)-1′,2′-dihydrospiro[cyclopropane-1,3′-pyrrolo[3,2-c]pyridin]-6′-yl)acetamide] | 100 to 1000 | ≥ 1000 |  | 
15 | CC(=O)Nc1cc2c(cn1)C1(CC1)CN2c1cc(C)cc(-c2cnn(C(C)C)c2)n1 [Example 263, N-(1′-(6-(1-isopropyl-1H-pyrazol-4-yl)-4-methylpyridin-2-yl)-1′,2′-dihydrospiro[cyclopropane-1,3′-pyrrolo[3,2-c]pyridin]-6′-yl)acetamide trifluoroacetate] | 10 to 100 | ≥ 1000 |  | 
16 | CC(=O)Nc1cc2c(cn1)C1(CC1)CN2c1cc(C)cc(OC(C)C)n1 [Example 334, N-(1′-(6-isopropoxy-4-methylpyridin-2-yl)-1′,2′-dihydrospiro[cyclopropane-1,3′-pyrrolo[3,2-c]pyridin]-6′-yl)acetamide trifluoroacetate] | 10 to 100 | ≥ 1000 |  | 
17 | CC(=O)Nc1cc2c(cn1)C1(CC1)CN2c1cc(C)nc(OCC23CC(C)(CO2)C3)n1 [Example 371, N-(1′-(6-methyl-2-((4-methyl-2-oxabicyclo[2.1.1]hexan-1-yl)methoxy)pyrimidin-4-yl)-1′,2′-dihydrospiro[cyclopropane-1,3′-pyrrolo[3,2-c]pyridin]-6′-yl)acetamide] | ≥ 1000 | ≥ 1000 |  | 
18 | CC(=O)Nc1cc2c(cn1)C1(CC1)CN2c1cc(C)cc(OCCF)n1 [Example 355, N-(1′-(6-(2-fluoroethoxy)-4-methylpyridin-2-yl)-1′,2′-dihydrospiro[cyclopropane-1,3′-pyrrolo[3,2-c]pyridin]-6′-yl)acetamide trifluoroacetate] | ≤ 10 | 100 to 1000 |  | 
19 | CC(=O)Nc1cc2c(cn1)C1(CC1)CN2c1cc(C)nc(N2CCC(C)(C#N)C2)n1 (stereo not shown) [Example 409, N-(1′-(2-(3-cyano-3-methylpyrrolidin-1-yl)-6-methylpyrimidin-4-yl)-1′,2′-dihydrospiro[cyclopropane-1,3′-pyrrolo[3,2-c]pyridin]-6′-yl)acetamide] |  |  | 10 to 100 | ≥ 1000
20 | CC(=O)Nc1cc2c(cn1)C1(CC1)CN2c1cc(C)nc(C2CCCN(S(C)(=O)=O)C2)n1 (stereo not shown) [Example 119, N-(1′-(6-methyl-2-(1-(methylsulfonyl)piperidin-3-yl)pyrimidin-4-yl)-1′,2′-dihydrospiro[cyclopropane-1,3′-pyrrolo[3,2-c]pyridin]-6′-yl)acetamide] | 10 to 100 | 100 to 1000 |  | 
21 | COC1(c2nc(C)cc(N3CC4(CC4)c4cnc(NC(C)=O)cc43)n2)CCC1 [Example 104, N-(1′-(2-(1-methoxycyclobutyl)-6-methylpyrimidin-4-yl)-1′,2′-dihydrospiro[cyclopropane-1,3′-pyrrolo[3,2-c]pyridin]-6′-yl)acetamide] | ≤ 10 | 100 to 1000 |  | 
22 | CCOCc1nc(C)cc(N2CC3(CC3)c3cnc(NC(C)=O)cc32)n1 [Example 59, N-(1′-(2-(ethoxymethyl)-6-methylpyrimidin-4-yl)-1′,2′-dihydrospiro[cyclopropane-1,3′-pyrrolo[3,2-c]pyridin]-6′-yl)acetamide] | 100 to 1000 | ≥ 1000 |  | 
23 | CC(=O)Nc1cc2c(cn1)C1(CC1)CN2c1nc(C(C)(F)F)cs1 [Example 79, N-(1′-(4-(1,1-difluoroethyl)thiazol-2-yl)-1′,2′-dihydrospiro[cyclopropane-1,3′-pyrrolo[3,2-c]pyridin]-6′-yl)acetamide trifluoroacetate] | 10 to 100 | ≥ 1000 |  | 
24 | CC(=O)Nc1cc2c(cn1)C1(CC1)CN2c1cc(N)nc(C(C)(F)F)n1 [Example 273, N-(1′-(6-amino-2-(1,1-difluoroethyl)pyrimidin-4-yl)-1′,2′-dihydrospiro[cyclopropane-1,3′-pyrrolo[3,2-c]pyridin]-6′-yl)acetamide trifluoroacetate] | ≤ 10 | 10 to 100 |  | 
25 | CC(=O)Nc1cc2c(cn1)C1(CC1)CN2c1cc(C)nc(N2CCC(O)CC2)n1 [Example 232, N-(1′-(2-(4-hydroxypiperidin-1-yl)-6-methylpyrimidin-4-yl)-1′,2′-dihydrospiro[cyclopropane-1,3′-pyrrolo[3,2-c]pyridin]-6′-yl)acetamide] | 100 to 1000 | ≥ 1000 |  | 
26 | COC(C)(C)c1nc(C)cc(N2CC3(CC3)c3cnc(NC(C)=O)cc32)n1 [Example 129, N-(1′-(2-(2-methoxypropan-2-yl)-6-methylpyrimidin-4-yl)-1′,2′-dihydrospiro[cyclopropane-1,3′-pyrrolo[3,2-c]pyridin]-6′-yl)acetamide] | 10 to 100 | 100 to 1000 |  | 
